Assays:
[1] = target: T1, STAT6 (Homo sapiens, UniProt P42226); test: STAT6 Reporter Luciferase Assay (IL-13 stimulated HaCaT keratinocyte NanoLuc reporter cells); type: cell-based; conditions: IL-13 stimulated HaCaT STAT6 NanoLuc reporter cells; read-out: Reporter EC50
T1 construct: stably transfected HaCaT keratinocyte cell line, which expresses NanoLuc luciferase reporter gene under the transcriptional control of the STAT6 responsive promoter; endogenous in cells; host or cells: HaCaT keratinocyte reporter cell line (stably transfected with a NanoLuc reporter)
T1 sequence (P42226 1-847): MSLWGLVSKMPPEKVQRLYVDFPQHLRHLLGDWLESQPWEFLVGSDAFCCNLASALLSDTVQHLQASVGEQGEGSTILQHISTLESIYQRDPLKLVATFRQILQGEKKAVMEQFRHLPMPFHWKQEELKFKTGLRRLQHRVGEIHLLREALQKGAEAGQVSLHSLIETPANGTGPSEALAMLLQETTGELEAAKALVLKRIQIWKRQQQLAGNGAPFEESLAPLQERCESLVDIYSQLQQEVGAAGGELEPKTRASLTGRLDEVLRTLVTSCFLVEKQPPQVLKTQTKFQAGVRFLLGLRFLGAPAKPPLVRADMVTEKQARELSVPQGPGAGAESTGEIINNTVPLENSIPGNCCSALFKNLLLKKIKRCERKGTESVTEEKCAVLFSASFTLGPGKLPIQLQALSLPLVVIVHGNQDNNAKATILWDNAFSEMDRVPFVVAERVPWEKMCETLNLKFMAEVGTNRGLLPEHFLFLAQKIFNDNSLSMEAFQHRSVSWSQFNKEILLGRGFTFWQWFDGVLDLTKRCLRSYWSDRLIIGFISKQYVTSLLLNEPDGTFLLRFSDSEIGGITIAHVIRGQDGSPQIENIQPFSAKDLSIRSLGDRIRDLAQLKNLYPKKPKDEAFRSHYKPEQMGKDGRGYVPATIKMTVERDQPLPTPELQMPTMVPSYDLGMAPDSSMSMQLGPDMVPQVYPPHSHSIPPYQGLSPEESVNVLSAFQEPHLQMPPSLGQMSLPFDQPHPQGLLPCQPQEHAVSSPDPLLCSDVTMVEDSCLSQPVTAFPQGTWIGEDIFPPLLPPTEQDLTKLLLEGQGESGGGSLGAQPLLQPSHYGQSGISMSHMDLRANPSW
Outline: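 Stably transfected HaCaT cells carrying NanoLuc under the STAT6-responsive IL-13Ra2 promoter were pre-treated with compound (11-point, 4-fold series, duplicate) for 2 h at 37 °C, then stimulated with 0.12 nM IL-13 for 4 h. Nano-Glo luminescence was read after 15 min.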

[2] = tested on: CCL17 secretion in peripheral human whole blood; test: Human Whole Blood (HWB) CCL17 TR-FRET Assay (IL-13 stimulated CCL17 secretion); type: cell-based; conditions: human whole blood
Outline: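 TR-FRET sandwich immunoassay (665/615 nm ratio) read CCL17 in serum from heparinized whole blood after 16 h RT detection. Blood was exposed to compound for 2 h at 37 °C, then to 10 ng/mL IL-13 (final) for 48 h. IC50 from 11-point, 3-fold titrations in duplicate.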

[3] = Homo sapiens, 48 h, IL-13 10 ng/mL

Row | EC50 [1] [nM] | IC50 [2, 3] [nM] | IC50 ([2]; IL-13 stimulated, 48 hours) [nM] | Compound
1 | 3 | 25 | – | CCn1nc(C(=O)NCc2ccc(NC(=O)N3CC(NC)C3)c(F)c2)c2c1[C@@H](C)CN(c1ccc(C(=O)N(C)C)cc1)C2 [Example 716, (S)-5-(4-(dimethylcarbamoyl)phenyl)-1-ethyl-N-(3-fluoro-4-(3-(methylamino)azetidine-1-carboxamido)benzyl)-7-methyl-4,5,6,7-tetrahydro-1H-pyrazolo[4,3-c]pyridine-3-carboxamide]
2 | 3 | 29 | – | CC(C)n1nc(C(=O)NCc2ccc(NC(=O)N3CCN(C)CC3)c(Cl)c2)c2c1[C@@H](C)CN(c1ccc(C(=O)N(C)C)cc1)C2 [Example 717, (S)-N-(3-chloro-4-(4-methylpiperazine-1-carboxamido)benzyl)-5-(4-(dimethylcarbamoyl)phenyl)-1-isopropyl-7-methyl-4,5,6,7-tetrahydro-1H-pyrazolo[4,3-c]pyridine-3-carboxamide]
3 | 1 | 18 | – | CC(C)n1nc(C(=O)NCc2ccc(NC(=O)N3CCN(C)CC3)cc2F)c2c1[C@@H](C)CN(c1ccc(C(=O)N(C)C)cc1)C2 [Example 718, (S)-5-(4-(dimethylcarbamoyl)phenyl)-N-(2-fluoro-4-(4-methylpiperazine-1-carboxamido)benzyl)-1-isopropyl-7-methyl-4,5,6,7-tetrahydro-1H-pyrazolo[4,3-c]pyridine-3-carboxamide]
4 | 1000 | 3690 | – | CC(C)n1nc(C(=O)NCc2ccc(C(N)=O)cc2)c2c1[C@@H](C)CN(c1ncc(-c3nccn3C)cn1)C2 [Example 719, (S)-N-(4-carbamoylbenzyl)-1-isopropyl-7-methyl-5-(5-(1-methyl-1H-imidazol-2-yl)pyrimidin-2-yl)-4,5,6,7-tetrahydro-1H-pyrazolo[4,3-c]pyridine-3-carboxamide]
5 | 12 | 102 | – | CC(C)n1nc(C(=O)NCc2ccc(NC(=O)C3CCN(C)CC3)c(F)c2)c2c1[C@@H](C)CN(c1ccc(C(=O)N(C)C)cc1)C2 [Example 721, (S)-5-(4-(dimethylcarbamoyl)phenyl)-N-(3-fluoro-4-(1-methylpiperidine-4-carboxamido)benzyl)-1-isopropyl-7-methyl-4,5,6,7-tetrahydro-1H-pyrazolo[4,3-c]pyridine-3-carboxamide]
6 | 8 | 40 | – | CN[C@@H]1CCN(C(=O)Nc2ccc(CNC(=O)c3nn(C(C)C)c4c3CN(c3ccc(C(=O)N(C)C)cc3)C[C@@H]4C)cc2)C1 [Example 722, (S)-5-(4-(dimethylcarbamoyl)phenyl)-1-isopropyl-7-methyl-N-(4-((R)-3-(methylamino)pyrrolidine-1-carboxamido)benzyl)-4,5,6,7-tetrahydro-1H-pyrazolo[4,3-c]pyridine-3-carboxamide]
7 | 128 | 665 | – | Cc1coc(-c2ccc(CNC(=O)c3nn(C(C)C)c4c3CN(c3ccc(C(=O)N(C)C)cc3)C[C@@H]4C)cc2)n1 [Example 723, (S)-5-(4-(dimethylcarbamoyl)phenyl)-1-isopropyl-7-methyl-N-(4-(4-methyloxazol-2-yl)benzyl)-4,5,6,7-tetrahydro-1H-pyrazolo[4,3-c]pyridine-3-carboxamide]
8 | 129 | 5060 | – | Cc1cncc(-c2ccc(CNC(=O)c3nn(C(C)C)c4c3CN(c3ccc(C(=O)N(C)C)cc3)C[C@H]4C)cc2)n1 [Example 724, (R)-5-(4-(dimethylcarbamoyl)phenyl)-1-isopropyl-7-methyl-N-(4-(6-methylpyrazin-2-yl)benzyl)-4,5,6,7-tetrahydro-1H-pyrazolo[4,3-c]pyridine-3-carboxamide]
9 | 177 | 4460 | – | CC(C)n1nc(C(=O)NCc2ccc(-c3ccn(C)n3)cc2)c2c1[C@@H](C)CN(c1ccc(C(=O)N(C)C)cc1)C2 [Example 725, (S)-5-(4-(dimethylcarbamoyl)phenyl)-1-isopropyl-7-methyl-N-(4-(1-methyl-1H-pyrazol-3-yl)benzyl)-4,5,6,7-tetrahydro-1H-pyrazolo[4,3-c]pyridine-3-carboxamide]
10 | 123 | 5680 | – | Cc1cccc(-c2ccc(CNC(=O)c3nn(C(C)C)c4c3CN(c3ccc(C(=O)N(C)C)cc3)C[C@@H]4C)cc2)n1 [Example 726, (S)-5-(4-(dimethylcarbamoyl)phenyl)-1-isopropyl-7-methyl-N-(4-(6-methylpyridin-2-yl)benzyl)-4,5,6,7-tetrahydro-1H-pyrazolo[4,3-c]pyridine-3-carboxamide]
11 | 11 | 383 | – | Cc1ccc(-c2ccc(CNC(=O)c3nn(C(C)C)c4c3CN(c3ccc(C(=O)N(C)C)cc3)C[C@@H]4C)cc2)nn1 [Example 727, (S)-5-(4-(dimethylcarbamoyl)phenyl)-1-isopropyl-7-methyl-N-(4-(6-methylpyridazin-3-yl)benzyl)-4,5,6,7-tetrahydro-1H-pyrazolo[4,3-c]pyridine-3-carboxamide]
12 | 231 | 4210 | – | Cc1nccc(-c2ccc(CNC(=O)c3nn(C(C)C)c4c3CN(c3ccc(C(=O)N(C)C)cc3)C[C@@H]4C)cc2)n1 [Example 728, (S)-5-(4-(dimethylcarbamoyl)phenyl)-1-isopropyl-7-methyl-N-(4-(2-methylpyrimidin-4-yl)benzyl)-4,5,6,7-tetrahydro-1H-pyrazolo[4,3-c]pyridine-3-carboxamide]
13 | 683 | 4330 | – | Cc1csc(-c2ccc(CNC(=O)c3nn(C(C)C)c4c3CN(c3ccc(C(=O)N(C)C)cc3)C[C@@H]4C)cc2)n1 [Example 729, (S)-5-(4-(dimethylcarbamoyl)phenyl)-1-isopropyl-7-methyl-N-(4-(4-methylthiazol-2-yl)benzyl)-4,5,6,7-tetrahydro-1H-pyrazolo[4,3-c]pyridine-3-carboxamide]
14 | > 10000 | > 15100 | – | Cc1ccnc(-c2ccc(CNC(=O)c3nn(C(C)C)c4c3CN(c3ccc(C(=O)N(C)C)cc3)C[C@@H]4C)cc2)n1 [Example 730, (S)-5-(4-(dimethylcarbamoyl)phenyl)-1-isopropyl-7-methyl-N-(4-(4-methylpyrimidin-2-yl)benzyl)-4,5,6,7-tetrahydro-1H-pyrazolo[4,3-c]pyridine-3-carboxamide]
15 | 82 | 1250 | – | COc1nc(-c2ccc(CNC(=O)c3nn(C(C)C)c4c3CN(c3ccc(C(=O)N(C)C)cc3)C[C@@H]4C)cc2)ncc1N [Example 731, (S)-N-(4-(5-amino-4-methoxypyrimidin-2-yl)benzyl)-5-(4-(dimethylcarbamoyl)phenyl)-1-isopropyl-7-methyl-4,5,6,7-tetrahydro-1H-pyrazolo[4,3-c]pyridine-3-carboxamide]
16 | 88 | 3070 | – | CC(C)n1nc(C(=O)NCc2ccc(-c3cnn(C)c3)cc2)c2c1[C@@H](C)CN(c1ccc(C(=O)N(C)C)cc1)C2 [Example 732, (S)-5-(4-(dimethylcarbamoyl)phenyl)-1-isopropyl-7-methyl-N-(4-(1-methyl-1H-pyrazol-4-yl)benzyl)-4,5,6,7-tetrahydro-1H-pyrazolo[4,3-c]pyridine-3-carboxamide]
17 | 39 | – | 104 | rel-(R or S)-5-(5-(dimethylcarbamoyl)pyridin-2-yl)-N-(4-(3,3-dimethylureido)benzyl)-1-methyl-7- [Example 390]

Reference: patent publication US20250320213A1, “Nitrogen-Containing Heterocyclic Compounds” (Pfizer Inc., priority 2024, published 2025)
